For this assay, the system named is rabbit aorta rings contracted with phenylephrine. Put plainly: Vasorelaxant effect in vitro. Details: species or system Rabbits. As to conditions: Oryctolagus cuniculus; isolated rabbit aorta rings, phenylephrine-induced contraction, concentration reducing height of contraction by 50%. As to the method:
Vasorelaxant Effect in Vitro
Rabbits are stunned by a blow to the back of the neck and are exsanguinated. The aorta is removed, freed of adherent tissue, divided into rings 1.5 mm wide and put singly under tension in 5 ml organ baths containing carbogen-gassed Krebs-Henseleit solution at 37° C. with the following composition (mM): NaCl: 119; KCl: 4.8; CaCl2×2H2O: 1; MgSO4×7H2O: 1.4; KH2PO4: 1.2; NaHCO3: 25; glucose: 10. The force of contraction is detected with Statham UC2 cells, amplified and digitized via A/D converters (DAS-1802 HC, Keithley Instruments Munich) and recorded in parallel on chart recorders. A contraction is generated by adding phenylephrine to the bath cumulatively in increasing concentration. After several control cycles, the substance to be investigated is investigated in each further run in increasing dosage in each case, and the height of the contraction is compared with the height of the contraction reached in the last preceding run. The concentration necessary to reduce the height of the control value by 50% (IC50) is calculated from this. The standard application volume is 5 μl, and the DMSO content in the bath solution corresponds to 0.1%.

The values below come from US20040235863A1, “Morpholine-bridged pyrazolopyridine derivatives” (priority 2001, published 2004).

Consider `Nc1nc(-c2nn(Cc3ccccc3F)c3ncccc23)ncc1N1C2CCCC1COC2` [Example 2, 2-[1-(2-Fluorobenzyl)-1H-pyrazolo[3,4-b]pyridin-3-yl]-5-(3-oxa-9-azabicyclo[3.3.1]non-9-yl)-4-pyrimidinylamine], for which the IC50 amounted to 300 nM.

As usually defined, the IC50 is the concentration at which inhibition is half-maximal.
